Data on eleven molecules can be found in patent US20210294217A1, “ACTINIC RAY-SENSITIVE OR RADIATION-SENSITIVE RESIN COMPOSITION, RESIST FILM, PATTERN FORMING METHOD, AND METHOD FOR MANUFACTURING ELECTRONIC DEVICE” (FUJIFILM Corporation, priority 2019, published 2021).

A short description of this data set: acid dissociation constant pKa determined by computation (ACD/Labs Software Package 1; Gaussian 16 DFT where not calculable). The settings on record: acid generated from photoacid generator B. The text has this:
In the present specification, an acid dissociation constant (pKa) represents a pKa in an aqueous solution, and is specifically a value determined by computation from a value based on a Hammett's substituent constant and database of publicly known literature values, using the following software package 1. Any of the pKa values described in the present specification indicates values determined by computation using the software package.
Software Package 1: Advanced Chemistry Development (ACD/Labs) Software V 8.14 for Solaris (1994-2007 ACD/Labs).
As described above, the pKa in the present specification refers to a value determined by computation from a value based on a Hammett's substituent constant and database of publicly known literature values, using the software package 1, but in a case where the pKa cannot be calculated by the method, a value obtained by Gaussian 16 based on density functional theory (DFT) shall be adopted.
In addition, the pKa in the present specification refers to a “pKa in an aqueous solution” as described above, but in a case where the pKa in an aqueous solution cannot be calculated, a “pKa in a dimethyl sulfoxide (DMSO) solution” shall be adopted.
Furthermore, in the measurement of the acid dissociation constant pKa of an acid generated from the photoacid generator B, specifically, the pKa is a value determined by subjecting a compound formed by substituting each cationic moiety in the compounds B-1 to B-25 with H^+ (for example, in a case of the compound B-1, a compound formed by substituting the triphenylsulfonium cation with H^+) to computation from a value based on a Hammett's substituent constant and database of publicly known literature values, using Software Package 1 of ACD/Labs, as described above. In addition, in a case where pKa could not be calculated by the method, a value obtained by Gaussian 16 based on density functional theory (DFT) was adopted.
In the following table, “pKa1” represents an acid dissociation constant of the first stage, “pKa2” represents an acid dissociation constant of the second stage, and “pKa3” represents an acid dissociation constant of the third stage. A smaller value of pKa means a higher acidity. […]

`O=C(O)N1CCN(S(=O)(=O)C(F)(F)C(F)(F)C(F)(F)S(=O)(=O)NS(=O)(=O)C(F)(F)F)CC1` [B-13]: the “Difference between acid dissociation constant a1 and acid dissociation constant a2” value is 15.11.

As for `O=C(OCCCS(=O)(=O)O)C(F)(F)S(=O)(=O)O` [B-6], the “Difference between acid dissociation constant a1 and acid dissociation constant a2” value is 4.82.

As to `O=C(O)C(F)(F)C(F)(F)C(F)(F)C(=O)OC12CC3CC(CC(COC(=O)C(F)(F)S(=O)(=O)O)(C3)C1)C2` [B-3], the “Difference between acid dissociation constant a1 and acid dissociation constant a2” value is recorded as 2.92.

On to `O=S(=O)(O)NCCOC1CCCC(C(F)(F)S(=O)(=O)O)C1` (centres unmarked) [B-18], for which the “Difference between acid dissociation constant a1 and acid dissociation constant a2” value is on record as 3.2.

In the case of `O=C(O)C1CCCCC1C(=O)OCC(F)C(F)(F)S(=O)(=O)O` (centres unmarked) [B-17], the “Difference between acid dissociation constant a1 and acid dissociation constant a2” value is reported as 7.24.

Consider `CC1(C)C2CCC1(CS(=O)(=O)NC(=O)C(F)(F)C(F)(F)C(F)(F)F)C(OC(=O)C(F)S(=O)(=O)O)C2` (centres unmarked) [B-8], for which the “Difference between acid dissociation constant a1 and acid dissociation constant a2” value is given as 2.20.

For `O=C(O)CCCOC(=O)C(CS(=O)(=O)O)C(F)(F)F` (centres unmarked) [B-14], the “Difference between acid dissociation constant a1 and acid dissociation constant a2” value is given as 3.63.

On to `O=C(COC(=O)C(F)(F)S(=O)(=O)O)NC(=O)C(F)(F)F` [B-4], for which the “Difference between acid dissociation constant a1 and acid dissociation constant a2” value is listed as 9.23.

As for `CS(=O)(=O)NC(=O)C(F)(F)C(F)(F)C(F)(F)C(=O)OCC(F)S(=O)(=O)O` (centres unmarked) [B-5], the “Difference between acid dissociation constant a1 and acid dissociation constant a2” value is 2.55.

On to `O=C(NS(=O)(=O)C(F)(F)C(F)(F)C(F)(F)S(=O)(=O)NS(=O)(=O)C(F)(F)F)c1cc(C(F)(F)F)cc(C(F)(F)F)c1` [B-24], for which the “Difference between acid dissociation constant a1 and acid dissociation constant a2” value was 9.95.

`O=C(CC(F)(F)F)NS(=O)(=O)C(F)(F)C(F)(F)C(F)(F)S(=O)(=O)NS(=O)(=O)C(F)(F)F` [B-22]: the “Difference between acid dissociation constant a1 and acid dissociation constant a2” value was 10.35.
